Where two headings read alike, the source gives them in different places.
What was measured:
fleas and ticks = details: topical application; cited from earlier work
[1] = administered systemically, animals; cited from earlier work
fleas = experiment: Activity against fleas in dogs (infestation with about 100 fleas, comb counts about 48 hours later); type: in vivo
Protocol: (§1) Beagle dogs of both sexes 21 to 31 months old and weighing from 10 to 16 kg were used. Groups of three dogs each were treated with the same active compound in different formulations as follows: • Group 1: topical formulation containing 10% w/v of active compound, 5% w/v polyvinylpyrrolidone 30 and ethanol qs to 100%v/v dosed at 5 mg/kg. • Group 2: long acting parenteral formulation containing 10% w/v of the active compound, 25% w/v of sucrose octaacetate, 1% w/v of propylene glycol octanoate decanoate and triacetin qs 100% v/v dosed subcutaneously at 10 mg/kg. • Group 3: long acting parenteral formulation containing 10% w/v active compound, 10% w/v poly(DL-lactide/glycolide)75/25, and qs 100% v/v 1:1 glycerol formal/triacetin dosed at 10 mg/kg subcutaneously. • Control group of three untreated dogs was included.
Treatments were administered once on Day 0. On Day 1 animals all animals were infested with approximately 100 fleas. Animals were combed and fleas counted and removed approximately 48 hours after infestation. Animals were infested on days 12 and 26, and combed and fleas counted and removed approximately 48 hours after infestation. Infestation/counting were repeated approximately monthly until efficacy fell below 80% [% efficacy = (1 - (mean flea count of treatment group ö mean flea count of control group) x 100).

[2] = Observation for emesis (vomition) in treated dogs; type: in vivo, Beagle dogs; details: 10 mg/kg subcutaneously
Protocol: as §1
(§2) Blood samples were collected from animals in treatment groups on Day 0 at 1, 2, 3 and 6 hours after treatment, on Day 1 at 24 hours after treatment, and whenever emesis was observed. Blood samples were also collected when flea counts were determined. Animals were observed hourly for 6 hours post treatment for emesis.

[3] = Plasma drug level in treated dogs; type: in vivo, Beagle dogs; details: dog, sc, group 2: sucrose octaacetate/triacetin formulation, 10 mg/kg subcutaneously, read-out: peak plasma levels
Protocol: as §1, §2

Compound	duration of efficacy (fleas and ticks)	vomition [1]	efficacy against fleas (fleas; group 1: topical formulation, 10% w/v active compound, 5 mg/kg once on Day 0, dogs, held for between 55 and 90 days) [%]	efficacy against fleas (fleas; group 2: long acting parenteral formulation (sucrose octaacetate/triacetin), 10 mg/kg subcutaneously once, dogs, maintained for up to between 5 and 6 months) [%]	duration of close to 100% efficacy against fleas (fleas; group 3: long acting parenteral formulation (poly(DL-lactide/glycolide)75/25, 1:1 glycerol formal/triacetin), 10 mg/kg subcutaneously once, dogs) [months]	efficacy against fleas (fleas; group 3: long acting parenteral formulation (poly(DL-lactide/glycolide)75/25, 1:1 glycerol formal/triacetin), 10 mg/kg subcutaneously once, dogs, for >12 months) [%]	vomition ([2]; group 2: sucrose octaacetate/triacetin formulation)	vomition ([2]; group 3: poly(DL-lactide/glycolide) formulation)	Cmax [3] [ng/mL]
N#Cc1nn(-c2c(Cl)cc(C(F)(F)F)cc2Cl)c(N)c1[S+]([O-])C(F)(F)F (stereo not drawn) [Fipronil, fipronil]	not more than three months	known to cause vomition							
N#Cc1nn(-c2c(Cl)cc(S(F)(F)(F)(F)F)cc2Cl)c(N)c1SC(F)(F)F [active compound]			> 90	> 90	> 12	~100	Vomition occurred	No vomition was observed	> 100

Source: patent publication EP1063992B1, “SULFURPENTA FLUOROPHENYL PYRAZOLES FOR CONTROLLING ECTOPARASITIC INFESTATIONS” (MERCK & CO., INC., priority 1998, dated 1999)
